Reference: patent US7838552B2, “Compositions comprising nebivolol” (Forest Laboratories Holdings Limited, priority 2004, dated 2010)

Tested on: Black donor endothelial cells (HUVEC)
Assay: NO release from HUVEC of Black donors, measured with a porphyrinic nanosensor
Assay type: cell-based, Human
Details: for magnitude of the increase in NO release, Black versus White donor cells: chronic ACE inhibitor treatment followed by nebivolol 1 μM, FIG. 2 and FIG. 4
Procedure: All measurements presented were recorded in vitro using a sensitive porphyrinic probe, as previously described. Malinski T, Taha Z., Nature. 1992; 358:676-678; Malinski T, Czuchajowski L., Methods in Nitric Oxide Research. 1996:319-339. NO release was measured directly from HUVEC. HUVEC cells from Black and White donors were grown in Ham's F12K medium with 2 mM L-glutamine adjusted to contain 1.5 g/L sodium bicarbonate and supplemented with 0.1 mg/ml heparin and 0.03-0.05 mg/ml endothelial cell growth supplement (ECGS) +10% fetal bovine serum. The HUVEC cells were kept in an atmosphere of elevated CO2 concentration (5%). Nebivolol was obtained from Mylan Laboratories (Morgantown, W.Va.).
All measurements of endothelial NO release were conducted in Hank's balance solution at 37° C. Cell wells were transferred to a Faraday cage and a porphyrinic sensor (diameter 0.5 mm) was positioned at a distance of 5±2 μm from the surface of the endothelial cells using an inverted microscope (Leica Microsystems, Wetzlar, Germany) and a computer-assisted micromanipulator. The sensor operated with a three-electrode system: nanosensor (working electrode), saturated calomel electrode (reference electrode) and platinum wire (counter electrode, 0.5 mm diameter). The three electrodes were connected to a potentiostat/galvanostat PAR273. The baseline was stabilized after about 20 seconds. The test compounds were injected with a nanoinjector onto the surface of the cells following solubilization in buffer. Cells were incubated with the test compounds for a 24-hour period. The compounds were then washed out of the system before being immediately reintroduced in order to evaluate the consequences of chronic treatment on NO release from the cells. For additive experiments, cells were incubated with ACE inhibitor for 24 hours, the inhibitor was washed out of the system, nebivolol was added and the NO release measured. The current proportional to the NO concentration was measured with the sensor, which operated in amperometric mode at a constant potential of 0.63V. Data were acquired with the use of an IBM computer with custom software and amperograms (current vs. time curves) were recorded with a Guniry FAS1 Femtostat (Warminster, Pa.). Maximum release of NO was produced using a calcium agonist (1 μM). By increasing cytoplasmic levels of calcium, the ion can bind to calmodulin. The Ca2+-calmodulin complex is a cofactor for endothelial NO synthase, along with FAD, FMN, Heme and BH4.
Nanosensors were prepared from carbon fibers. The size of the tip of carbon fiber was reduced from 6 μm to less than 1 μm by temperature controlled burning. The sensors were sensitized to NO by deposition of electrically conductive polymeric porphyrin and covered with a thin layer of Nafion. […]

SMILES | effect on the ability of nebivolol to increase NO release (Black donor cells, chronic (24 h) ramiprilat 1, 5 and 10 μM, washed out, then nebivolol 1 μM, FIG. 1) | magnitude of the increase in NO release, Black versus White donor cells | enhancement of the ability of nebivolol to increase NO release (Black donor cells, chronic (24 h) enalapril 5 and 10 μM, then nebivolol 1 μM, FIG. 3)
C[C@H](N[C@@H](CCc1ccccc1)C(=O)O)C(=O)N1[C@H](C(=O)O)C[C@@H]2CCC[C@@H]21 [ramiprilat] | modest but significant effects | greater in endothelial cells from Black donors | –
CCOC(=O)[C@H](CCc1ccccc1)N[C@@H](C)C(=O)N1CCC[C@H]1C(=O)O [enalapril] | – | greater in endothelial cells from Blacks than Whites | significantly enhanced
